Experimental data from ChEMBL document CHEMBL1139888, “Fungicidal activities of dihydroferulic acid alkyl ester analogues” (2007).

Columns and labels:
Type in all cases: functional
Saccharomyces cerevisiae [1] = assay: Growth inhibition of Saccharomyces cerevisiae slt2delta deletion mutant at 1.6 mM relative to control after 48 hrs
Saccharomyces cerevisiae [2] = assay: Growth inhibition of Saccharomyces cerevisiae slt2delta deletion mutant at 3.2 mM relative to control after 48 hrs
Saccharomyces cerevisiae [3] = assay: Antifungal activity against Saccharomyces cerevisiae slt2delta deletion mutant assessed as cell number at 1.6 mM after 48 hrs
Saccharomyces cerevisiae [4] = assay: Antifungal activity against Saccharomyces cerevisiae slt2delta deletion mutant assessed as cell number at 3.2 mM after 48 hrs

Question: With `CCCOC(=O)CCc1ccc(O)c(OC)c1` [DIHYDROFERULIC ACID PROPYL ESTER] as the compound, how does the inhibition at 1600 µM (Saccharomyces cerevisiae [1]) read?
Answer: The inhibition at 1600 µM was 75.5%.

Question: What about the inhibition at 3200 µM (Saccharomyces cerevisiae [2]) of the same compound?
Answer: The inhibition at 3200 µM was 90.7%.

Question: What about the Activity (Saccharomyces cerevisiae [3]) of the same compound?
Answer: Its Activity is 1.13.

Question: What about the Activity (Saccharomyces cerevisiae [4]) of the same compound?
Answer: Its Activity is 0.43.
